Reference: patent US10882867B2, “Forms and compositions of a MK2 inhibitor” (Celgene CAR LLC, priority 2017, dated 2021)

Experiments:
[1] = DSC and TGA thermal analysis; conditions: for % loss (TGA): screen sample; for endotherm observed (DSC): complex of Compound 1 with co-former, sample from primary salt/co-crystal screen
[2] = Dynamic vapor sorption (DVS) hygroscopicity; type: physicochemical; conditions: for Hygroscopicity: DVS, 0 to 90% RH
Experimental: Hygroscopicity was determined on a Surface Measurement Systems DVS. A sample size of 5-20 mg was loaded into the DVS instrument sample pan and the sample was analyzed on a DVS automated sorption analyzer at room temperature. The relative humidity was increased from 0% to 90% RH at 10% RH step, then decreased in a similar manner to accomplish a full adsorption/desorption cycle. FIGS. 29-33 depict the DVS isotherm plots of Forms A, C, D, E, and I.

[3] = Form conversion (form transfer) experiments: slurry, compression, heating, humidity cycle; type: physicochemical
Experimental: Form conversion experiments were performed to determine interconversion among solid forms.
The stability of Form A was further characterized by compression test and form transfer experiments (Table 6). Upon application of 2000-psi pressure for about 1 minute, the material was still Form A, with broader diffraction peaks (FIG. 42(c)).

[4] = between 0 and 90% RH, room temperature
[5] = 0-90-0% RH cycle in DVS, 25° C.
[6] = compression, 2000 psi, RT, 1 min
[7] = heating in KF oven, 190° C., ~10 min

O=C(O)c1ccc2ccccc2c1O [1-hydroxy-2-naphthoic acid (Form 1)]
% loss (TGA) ([1]; up to 150° C.): 10.82% loss up to 150 °C

CCOCc1cnc(Cl)nc1Oc1ccc2c(ccc3sc4c(c32)NC[C@@H](C)NC4=O)n1 [Form E, (R)-3-((2-chloro-5-(ethoxymethyl)pyrimidin-4-yl)oxy)-10-methyl-9,10,11,12-tetrahydro-8H-[1,4]diazepino[5′,6′:4,5]thieno[3,2-f]quinolin-8-one]
DVS water uptake ([2]; between 0 and 60% RH): about 2.2 wt %
DVS water uptake [2, 4]: 7.5 wt %
DVS water uptake ([2]; between 0 and 90% RH, room temperature, listed as E): DVS: ~7.5 wt % water
Resulting Form(s) [3, 5]: No form change
Resulting form ([3]; THF/water (5/95), long periods of equilibration): converted to Form A
Resulting Form(s) [3, 6]: still Form E
Resulting Form(s) [3, 7]: confirmed to be Form E
Resulting form ([3]; slurry in acetone, temperature and time not given): converts to Form A

CCOCc1cnc(Cl)nc1Oc1ccc2c(ccc3sc4c(c32)NC[C@@H](C)NC4=O)n1 [Form B, (R)-3-((2-chloro-5-(ethoxymethyl)pyrimidin-4-yl)oxy)-10-methyl-9,10,11,12-tetrahydro-8H-[1,4]diazepino[5′,6′:4,5]thieno[3,2-f]quinolin-8-one]
Resulting Form(s) [3, 6]: mainly Form B, with a small amount of Form A
Resulting Form(s) ([3]; compression, 2000 psi, RT, 1 min, listed as B): B + A
Resulting Form(s) [3, 7]: confirmed to be Form A
Form change upon storage ([3]; storage in vials): convert to Form A

O=C(O)c1ccc2ccccc2c1O [1-hydroxy-2-naphthoic acid (Form 2)]
endotherm observed (DSC) [1]: endotherm observed at 169.60 °C
% loss (TGA) ([1]; up to 150° C.): 1.86% loss up to 150 °C

O=C(O)c1cc(O)ccc1O [gentisic acid]
endotherm observed (DSC) [1]: endotherm observed at 115.17 °C
% loss (TGA) ([1]; up to 120° C.): 1.69% loss up to 120 °C

Cc1ccc(S(=O)(=O)O)cc1 [p-toluenesulfonic acid]
% loss (TGA) ([1]; up to 130° C.): 3.50% loss up to 130 °C

O=C(O)/C=C\C(=O)O [maleic acid]
endotherm observed (DSC) [1]: endotherm observed at 153.89 °C
% loss (TGA) ([1]; up to […] C.): 9.87% loss up to 155 °C

CCOCc1cnc(Cl)nc1Oc1ccc2c(ccc3sc4c(c32)NC[C@@H](C)NC4=O)n1 [Form D, (R)-3-((2-chloro-5-(ethoxymethyl)pyrimidin-4-yl)oxy)-10-methyl-9,10,11,12-tetrahydro-8H-[1,4]diazepino[5′,6′:4,5]thieno[3,2-f]quinolin-8-one]
Hygroscopicity [2]: slightly hygroscopic
DVS water uptake [2, 4]: about 2.6 wt %
DVS water uptake ([2]; between 0 and 90% RH, room temperature, listed as D): DVS: ~2.6 wt % water
Resulting Form(s) [3, 5]: No form change
Resulting Form(s) [3, 6]: mainly Form D
Resulting Form(s) ([3]; compression, 2000 psi, RT, 1 min, listed as D): D (+ A?)
Resulting Form(s) [3, 7]: confirmed to be Form A

CS(=O)(=O)O [methanesulfonic acid]
endotherm observed (DSC) [1]: endotherm observed at 157.01 °C
% loss (TGA) ([1]; up to 160° C.): 8.28% loss up to 160 °C

CCOCc1cnc(Cl)nc1Oc1ccc2c(ccc3sc4c(c32)NC[C@@H](C)NC4=O)n1 [Form I, (R)-3-((2-chloro-5-(ethoxymethyl)pyrimidin-4-yl)oxy)-10-methyl-9,10,11,12-tetrahydro-8H-[1,4]diazepino[5′,6′:4,5]thieno[3,2-f]quinolin-8-one]
DVS water uptake [2, 4]: Approximately 1.5 wt %
Resulting Form(s) [3, 5]: change to Form A

NCCCC[C@H](N)C(=O)O [L-lysine]
% loss (TGA) ([1]; from 150 to 250° C.): 12.61% loss from 150 to 250 °C
% loss (TGA) ([1]; up to 150° C.): 7.32% loss up to 150 °C

CCOCc1cnc(Cl)nc1Oc1ccc2c(ccc3sc4c(c32)NC[C@@H](C)NC4=O)n1 [Form C, (R)-3-((2-chloro-5-(ethoxymethyl)pyrimidin-4-yl)oxy)-10-methyl-9,10,11,12-tetrahydro-8H-[1,4]diazepino[5′,6′:4,5]thieno[3,2-f]quinolin-8-one]
Hygroscopicity [2]: hygroscopic
DVS water uptake [2, 4]: approximately 4.1 wt %
DVS water uptake ([2]; between 0 and 90% RH, room temperature, listed as C): DVS: ~4.1 wt % water
Resulting Form(s) [3, 5]: E + C + peaks
Resulting Form(s) [3, 6]: partially convert to Form E
Resulting Form(s) ([3]; compression, 2000 psi, RT, 1 min, listed as C): E + C + peaks
Resulting Form(s) [3, 7]: a mixture of Form A and Form C
Resulting Form(s) ([3]; heating in KF oven, 190° C., ~10 min, listed as C): A + C (shifted)
Resulting form ([3]; slurry in THF/water (5:95), time not given): convert to Form E

N#CS [thiocyanic acid]
% loss (TGA) ([1]; from 100 to 200° C.): 6.54% loss from 100 to 200 °C
% loss (TGA) ([1]; up to 100° C.): 3.04% loss up to 100 °C

O=C1O[C@H]([C@@H](O)CO)C(O)=C1O [L-ascorbic acid]
endotherm observed (DSC) [1]: endotherm observed at 88.26 °C
% loss (TGA) ([1]; up to 100° C.): 2.55% loss up to 100 °C

CCOCc1cnc(Cl)nc1Oc1ccc2c(ccc3sc4c(c32)NC[C@@H](C)NC4=O)n1 [Form H, (R)-3-((2-chloro-5-(ethoxymethyl)pyrimidin-4-yl)oxy)-10-methyl-9,10,11,12-tetrahydro-8H-[1,4]diazepino[5′,6′:4,5]thieno[3,2-f]quinolin-8-one]
Resulting Form(s) ([3]; slurry in THF/water (5:95), RT, 8 days): A + I
Resulting Form(s) ([3]; slurry in water, RT, 4 days): generated Form I

O=C1NS(=O)(=O)c2ccccc21 [saccharin]
% loss (TGA) ([1]; up to […] C.): 3.70% loss up to 165 °C
